# Literature values, collected in US20040028772A1, “Method for preparation of chewing gum with customer acceptable taste” (priority 2000, published 2004).
# Counter-ions that a name gives are not always drawn.
SMILES,water-soluble / solubility in water [g/100 ml],water solubility (in words)
[H]/N=C(\N/C(=N/[H])NCCCCCCNC(=N)NC(=N)Nc1ccc(Cl)cc1)Nc1ccc(Cl)cc1 [Chlorhexidine dihydrochloride],0.06,–
Clc1ccc(COC(Cn2ccnc2)c2ccc(Cl)cc2Cl)c(Cl)c1 (stereo not shown) [Miconazol],< 0.001,–
CC(=O)Nc1ccc(O)cc1 [paracetamol],1.4,–
CC1=C(/C=C/C(C)=C/C=C/C(C)=C/CO)C(C)(C)CCC1 [A-vitamin],–,not water-soluble
CC(=O)O.CC(=O)O.NC(=N\CCCCCC/N=C(N)/N=C(\N)Nc1ccc(Cl)cc1)/N=C(\N)Nc1ccc(Cl)cc1 [Chlorhexidine diacetate],1.9,–
C[C@]12CC[C@H]3[C@@H](CCC4=CC(=O)CC[C@@H]43)[C@@H]1CC[C@@H]2O [nandrolone],–,heavily soluble
N=C(NCCCCCCNC(=N)NC(=N)Nc1ccc(Cl)cc1)NC(=N)Nc1ccc(Cl)cc1.O=C(O)[C@H](O)[C@@H](O)[C@H](O)[C@H](O)CO.O=C(O)[C@H](O)[C@@H](O)[C@H](O)[C@H](O)CO [Chlorhexidine digluconat],–,mixable
